The values below come from US11052069B2, “Regimes of FXR agonists” (NOVARTIS AG, priority 2016, dated 2021).

In series [1] the test system is nonalcoholic steatohepatitis patients. The following applies: long term administration; cited from earlier work.
Another series relates to PBC. The conditions noted are these: in vivo; cited from earlier work.
Series [2] deals with NASH in adults with liver fibrosis. The following applies: human, in vivo; cited from earlier work.
The subject of series [3] is FGF19, C4, total bile acid. Put plainly: Human study SAD/MAD: PD biomarkers. The series is classed as in vivo. Here is the method:
(§1) Methods: SAD: Subjects received 5 to 750 mg of Compound A (7 cohorts: 6 active, 2 placebo); subjects from one cohort returned for a second dosing cycle with a high-fat meal (3 active, 1 placebo). MAD: Subjects received 5 to 250 mg of Compound A daily for 14 days (5 cohorts; 6 active, 2 placebo). All adverse events (AEs) were captured, and plasma levels of Compound A and PD biomarkers were determined pre- and post-dosing at various time points.

Series [4] is described as follows: Human study SAD/MAD: safety, tolerability and plasma pharmacokinetics. The series is classed as in vivo. Here is the method: as §1
Series [5] deals with STAM model of non-alcoholic steatohepatitis. Put plainly: In vivo efficacy study in the STAM model of non-alcoholic steatohepatitis (Example 1). The arrangement: species or system C57BL/6 mice. Here is the method: Steatohepatitis (Treatment period: 6 to 9 wks and 9-12 weeks)
The study involves 14-day-pregnant C57BL/6 mice. NASH was established by a single subcutaneous injection of 200 μg streptozotocin (Sigma, USA) after birth and feeding with a high fat diet (HFD, 57% kcal fat, CLEA Japan, Japan) ad libitum after 4 weeks of age (day 28±2). Randomization of NASH mice into groups of 12 mice at 6 weeks of age (day 42±2) and groups of 12 mice at 9 weeks of age (day 63±2), the day before the start of treatment, respectively. NASH animals were dosed from age 6-9 weeks (Study 1), or from age 9-12 weeks (Study 2) with either: vehicle, Compound A, OCA or Compound A. A non-disease vehicle-control group of was included in both Study 1 and Study 2. These animals were fed with a normal diet (CE-2; CLEA Japan) ad libitum.
PK samples were collected and stored at ≤−60° C. Animals were dosed according to the dosing schedule below. Each animal was sacrificed 5 hours after last morning dose on the last day of study treatment (the evening dose of cenicriviroc or vehicle […] that day due to sacrifice).
Measurements: • The following parameters were measured or monitored daily: individual body weight, survival, clinical signs and behavior of mice. • Pharmacokinetic measurements: PK samples were collected from 4 animals per time point per compound. PK samples were for Compound A at hours 1 and 24 on Day 6 (n=4 per timepoint) for both monotherapy and combination groups. PK samples were taken for Cenicriviroc on Day 10 at hours 2 and 12 (n=4 per timepoint) for both monotherapy and combination groups. Only one PK sample was collected per animal using the first 8 animals per group, per the schedule below:
Mice were sacrificed at 9 weeks of age (study 1) or at 12 weeks of age (study 2).
The following samples were collected: plasma, liver (fresh liver samples for gene expression analysis were collected at 5 hr post the last morning (AM) dose for each animal), stool. Organ weight was measured.
The following biochemical assays were performed: Non-fasting blood glucose in whole blood by Life Check (Eidia, Japan); serum ALT by FUJI DRI-CHEM (Fujifilm, Japan); serum triglyceride; serum MCP-1, RANTES (CCLS) and MIP-1a/MIP-1 quantification by a commercial ELISA kit; liver triglyceride by Triglyceride E-test kit (Wako, Japan); liver hydroxyproline quantification by hydrolysis method; histological analyses for liver section; HE staining and estimation of NAFLD Activity score; Sirius-red staining and estimation of fibrosis area (with and without perivascular space subtracted); oil red staining and estimation of fat deposition area; F4/80 immunohistochemistry staining and estimation of inflammation area; alpha-SMA immunohistochemistry staining and estimation of α-SMA positive area Gene expression assays using total RNA from the liver.
Statistical tests were performed using one-way ANOVA followed by Dunnett's test and the Mann-Whitney test, as appropriate, for the multiple group comparisons. P values <0.05 are considered statistically significant.

For a further series, the system named is STAM mouse model of NASH. Put plainly: Compound A versus OCA in the STAM mouse model of NASH (Example 2). The series is classed as in vivo. The conditions noted are these: Compound A 3 to 30 mg/kg vs OCA 25 mg/kg, 3 weeks. The source says: FIGS. 1 and 2 describe an in-vivo efficacy study of Compound A versus OCA in the STAM model of non-alcoholic steatohepatitis for a treatment period of 6-9 weeks. FIG. 2 refers to the results on NAFLD Activity Score; FIG. 1 to Sirius-red positive area.
NASH was induced for 6 weeks prior to treatment with the indicated compound (and dose). Then, they have been treated with the indicated compound for 3 weeks prior to sacrifice.
NAFLD Activity Score from H&E stained liver sections from STAM disease (NASH) animals treated for 3 weeks with the indicated compound or vehicle. Disease was initiated in animals for 6 weeks prior to dosing and then animals were treated with Vehicle-1, Vehicle-2, Compound A (3 to 30 mg/kg) or OCA (25 mg/kg) for 3 weeks. NAS was determined by the method of Kleiner (Kleiner et al. 2005).
Sirius red stained liver sections from STAM disease (NASH) animals treated for 3 weeks with the indicated compound or vehicle. Disease was initiated in animals for 6 weeks prior to dosing and then animals were treated with Vehicle-1, Vehicle-2, Compound A (3 to 30 mg/kg) or OCA (25 mg/kg) for 3 weeks. Quantitative analysis of Sirius Red sections were performed using ImageJ software.

The subject of the next series is ANIT-induced cholestasis. Put plainly: Rat ANIT-induced cholestasis chronic treatment model. The series is classed as in vivo. Here is the method:
The efficacious concentration of Compound A was determined by PK/PD modeling from the rat ANIT-induced cholestasis chronic treatment model.

Where two headings read alike, the source gives them in different places. Some results are limits rather than exact numbers.

With `CC[C@H]1[C@@H](O)[C@@H]2[C@H](CC[C@]3(C)[C@@H]([C@H](C)CCC(=O)O)CC[C@@H]23)[C@@]2(C)CC[C@@H](O)C[C@@H]12` [OCA, Obeticholic acid], the Safety concerns result in series [1] is given as “can be associated with pruritus, as well as with increased LDL cholesterol”.
On to `C[C@H](CCC(=O)O)[C@H]1CC[C@H]2[C@@H]3[C@@H](O)C[C@@H]4C[C@H](O)CC[C@]4(C)[C@H]3CC[C@]12C` [UDCA, Ursodeoxycholic acid], for which, in the series with PBC, the “population that does not respond” value is recorded as 30-40%.
Regarding `CCCCOCCOc1ccc(-c2ccc3c(c2)/C=C(/C(=O)Nc2ccc([S@@+]([O-])Cc4cncn4CCC)cc2)CCCN3CC(C)C)cc1` [cenicriviroc, (S,E)-8-(4-(2-butoxyethoxy)phenyl)-1-(2-methylpropyl)-N-(4-(((1-propyl-1H-imidazol-5-yl)methyl)sulfinyl)phenyl)-1,2,3,4-tetrahydrobenzo[b]azocine-5-carboxamide], in series [2], the Adverse effects entry is on record as “can induce fatigue or diarrhea in a small part of the patients”, the Fibrosis result is recorded as “reduction of fibrosis” and the “Improvement of NAS” value is reported as “no significant impact”.
A word on the Tmax: it is the time at which the peak concentration occurs. For orientation: Cmax means the highest concentration seen after dosing. For `Cn1nc(C(=O)N(Cc2ccccc2)Cc2ccc(C(=O)O)cc2)c2c1-c1cc(Cl)ccc1OC2` [Compound A, 4-((N-benzyl-8-chloro-1-methyl-1,4-dihydrochromeno[4,3-c]pyrazole-3 carboxamido)methyl)benzoic acid], the “plasma FGF19 levels” value in series [3] (MAD, Day 14) is on record as “dose-dependent increase”. In series [3] (MAD, Day 14, 250 mg), the “plasma FGF19 median Cmax” value is 979 pg/mL. Further, in series [3] (MAD, similar dose range), the “serum C4 levels” value was “decline” and the “total bile acid (TBA) levels” value was “decline”. In series [3] (doses even beyond 250 mg), the “FGF19 with increasing doses” value is reported as “continues to rise”. Also, the “Serum FGF15 levels” value in series [3] (in vivo) is “increased with Compound A treatment in a dose-dependent manner”. Besides, the accumulation ratio entry in series [4] (MAD) is “mild”. In addition, the Steady-state reached in series [4] (MAD, daily for 14 days) was at most 5 days. In series [4] (SAD, with high-fat meal), this molecule returned an AUC decrease of 26% and a Cmax decrease of 58%. For the same molecule, the “Severe drug-related AEs” value in series [4] (any cohort) was “No severe drug-related AEs were reported”. For the same molecule, the “Safety and pharmacological activity” value in series [4] (daily doses of 5 mg to 750 mg) is “safe and pharmacological active”. Moreover, the SAEs attributed entry in series [4] (daily doses up to 250 mg for 14 days) is on record as “No SAEs have been attributed”. Further, in series [4] (human, plasma, oral, SAD, with high-fat meal, read-out: median Tmax), the Tmax turned out to be 4 h. In series [4] (human, plasma, oral, SAD, 5-750 mg doses), this molecule showed a Cmax of 177 to 12700 ng/mL. Also, the half-life in series [4] (human, plasma, oral, SAD, 5-750 mg doses, read-out: mean t1/2) lay in the range of 11.7 to 23.5 h. In addition, the Tmax in series [4] (human, plasma, oral, SAD, 5-750 mg doses, read-out: median plasma Tmax) lay in the range of 1.75 to 3 h. The Tolerability entry in series [4] (maximum doses tested (750 mg SAD and 250 mg MAD)) was “well tolerated”. Moreover, in series [5] (Study 1), the “Ballooning, NAS (mean +/− SD)” value turned out to be 1.3 ± 0.8; the “Ballooning, Score 0 (number of animals/group)” value is listed as 2; the “Ballooning, Score 1 (number of animals/group)” value worked out at 3; the “Ballooning, Score 2 (number of animals/group)” value is reported as 5. Also, in series [5] (Study 1), the “Fibrosis, NAS (mean +/− SD)” value came to 0.51 ± 0.25; the “Inflammatory infiltrates, Score 0 (number of animals/group)” value turned out to be 7; the “Inflammatory infiltrates, Score 1 (number of animals/group)” value stood at 2; the “Inflammatory infiltrates, Score 2 (number of animals/group)” value amounted to 1. Further, the “Inflammatory infiltrates, Score 3 (number of animals/group)” value in series [5] (Study 1) was determined as 0. For the same molecule, the “NAS (mean +/− SD)” value in series [5] (Study 1, dosed from age 6-9 weeks) is 2.7 ± 1.1. In series [5] (Study 2), the “Ballooning, NAS (mean +/− SD)” value came to 0.7 ± 0.8; the “Ballooning, Score 0 (number of animals/group)” value came out at 5; the “Ballooning, Score 1 (number of animals/group)” value turned out to be 3; the “Ballooning, Score 2 (number of animals/group)” value is 2. Also, in series [5] (Study 2), the “Fibrosis, NAS (mean +/− SD)” value is 0.55 ± 0.32; the “Inflammatory infiltrates, Score 0 (number of animals/group)” value is 3; the “Inflammatory infiltrates, Score 1 (number of animals/group)” value amounted to 1; the “Inflammatory infiltrates, Score 2 (number of animals/group)” value is recorded as 4. In addition, the “Inflammatory infiltrates, Score 3 (number of animals/group)” value in series [5] (Study 2) was 2. The “NAS (mean +/− SD)” value in series [5] (Study 2, dosed from age 9-12 weeks) is on record as 2.7 ± 1.1. In series [5] (both studies), the “Ballooning compared with the STAM-Vehicle group” value is on record as “trend for the reduction of ballooning” and the “Fibrosis area compared with the STAM-Vehicle group” value is listed as “trend for the reduction of the fibrosis area”. In series [5] (both studies 1 and 2), the “Inflammatory infiltrates compared with the STAM-Vehicle group” value is recorded as “significant reduction of Inflammatory infiltrates” and the “NAS compared with the STAM-Vehicle group” value is “significant reduction in NAS”. In the series with STAM mouse model of NASH, the Reduction of fibrosis result was “to a greater extent than OCA”, the “Reduction of hepatic steatosis” value was “to a greater extent than OCA”, the “Reduction of hepatocellular ballooning” value is on record as “to a greater extent than OCA” and the “Reduction of lobular inflammation” value is recorded as “to a greater extent than OCA”. In the series on ANIT-induced cholestasis (1.5 mg/kg), the ALT reduction came to 75%, the AST reduction came out at 80% and the GGT reduction is reported as 85%. Besides, in the series with ANIT-induced cholestasis (rat, in vivo), the “ANIT-induced histologic alterations in the liver” value was “reduced the ANIT-induced histologic alterations in the liver”.
